From US9611277B2 (Janssen Pharmaceutica NV, priority 2013, dated 2017)

Tests used:
[1] = biological target: rat orexin 1 receptor (Rattus norvegicus, UniProt P56718); experiment: Rat orexin 1 receptor radioligand binding; details: rat orexin 1 receptor; averages of 2-20 runs; read-out: rOX1 Ki
Procedure, shortened: (§1)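 Ki values derive from one-site competition IC50s corrected with the radioligand's predetermined Kd, triplicates per run, averaged over 2-20 runs. Cell homogenates (rat or human OX1R) compete against [^3H]-thiazolyl-oxadiazolyl-pyrrolidine methanone in PBS; 10 μM almorexant sets nonspecific binding; scintillation counting after washing.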

[2] = biological target: human orexin 1 receptor (Homo sapiens, UniProt O43613); experiment: Human orexin 1 receptor radioligand binding; details: human orexin 1 receptor; averages of 2-20 runs; read-out: hOX1 Ki
Procedure, shortened: as §1

[3] = biological target: human orexin 2 receptor (Homo sapiens (Human), UniProt O43614); experiment: Human orexin 2 receptor radioligand binding; details: human orexin 2 receptor; averages of 2-20 runs; read-out: hOX2 Ki
Procedure, shortened: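 Ki derived from one-site competition IC50 using predetermined Kd of [3H]-EMPA, triplicate points, 2-20 runs averaged. Binding done on homogenized HEK293 cells stably expressing human orexin 2 receptor, DMSO ≤0.1%, with 10 μM almorexant defining nonspecific binding; filtered, washed, scintillation counted.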

Chain of human orexin 2 receptor (O43614 whole entry): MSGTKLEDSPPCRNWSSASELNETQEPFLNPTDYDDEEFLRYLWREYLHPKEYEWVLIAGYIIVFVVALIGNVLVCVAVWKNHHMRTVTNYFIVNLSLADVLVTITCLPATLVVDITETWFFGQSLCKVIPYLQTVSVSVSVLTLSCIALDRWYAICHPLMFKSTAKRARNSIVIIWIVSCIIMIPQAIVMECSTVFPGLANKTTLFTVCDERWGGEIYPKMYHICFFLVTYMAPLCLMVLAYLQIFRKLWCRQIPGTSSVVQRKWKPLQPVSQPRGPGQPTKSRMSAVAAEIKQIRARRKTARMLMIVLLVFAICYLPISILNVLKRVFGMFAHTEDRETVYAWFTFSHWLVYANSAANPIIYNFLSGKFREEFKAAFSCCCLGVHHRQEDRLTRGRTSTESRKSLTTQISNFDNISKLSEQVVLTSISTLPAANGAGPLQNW

Row | Ki [1] [nM] | Ki [2] [nM] | Ki [3] [nM] | SMILES
1 | 9 | 9 | 545 | O=C(c1ccccc1-c1ncc(F)cn1)N1C[C@H]2C[C@@H](Nc3cnc(C(F)(F)F)cn3)[C@@H]1C2 [Example 203, (2-(5-fluoropyrimidin-2-yl)phenyl)((1S,4S,6R)-6-((5-(trifluoromethyl)pyrazin-2-yl)amino)-2-azabicyclo[2.2.1]heptan-2-yl)methanone]
2 | 9 | 9 | 960 | O=C(c1cccc(F)c1-c1ncc(F)cn1)N1C[C@H]2C[C@@H](Nc3cnc(C(F)(F)F)cn3)[C@@H]1C2 [Example 204, (3-fluoro-2-(5-fluoropyrimidin-2-yl)phenyl)((1S,4S,6R)-6-((5-(trifluoromethyl)pyrazin-2-yl)amino)-2-azabicyclo[2.2.1]heptan-2-yl)methanone]
3 | 51 | 35 | 846 | O=C(c1nccnc1-c1ccccc1)N1C[C@H]2C[C@@H](Nc3cnc(C(F)(F)F)cn3)[C@@H]1C2 [Example 205, (3-phenylpyrazin-2-yl)((1S,4S,6R)-6-((5-(trifluoromethyl)pyrazin-2-yl)amino)-2-azabicyclo[2.2.1]heptan-2-yl)methanone]
4 | 8 | 10 | 103 | O=C(c1ccccc1-c1ccccc1)N1C[C@H]2C[C@@H](Nc3cnc(C(F)(F)F)cn3)[C@@H]1C2 [Example 206, [1,1′-biphenyl]-2-yl((1S,4S,6R)-6-((5-(trifluoromethyl)pyrazin-2-yl)amino)-2-azabicyclo[2.2.1]heptan-2-yl)methanone]
5 | 143 | 127 | 611 | O=C(c1occc1-c1ccccc1)N1C[C@H]2C[C@@H](Nc3cnc(C(F)(F)F)cn3)[C@@H]1C2 [Example 207, (3-phenylfuran-2-yl)((1S,4S,6R)-6-((5-(trifluoromethyl)pyrazin-2-yl)amino)-2-azabicyclo[2.2.1]heptan-2-yl)methanone]
6 | 7 | 6 | 846 | CN(c1cnc(C(F)(F)F)cn1)[C@@H]1C[C@H]2C[C@@H]1N(C(=O)c1cccc(F)c1-c1ncccn1)C2 [Example 208, (3-fluoro-2-(pyrimidin-2-yl)phenyl)((1S,4S,6R)-6-(methyl(5-(trifluoromethyl)pyrazin-2-yl)amino)-2-azabicyclo[2.2.1]heptan-2-yl)methanone]

The next lines start with the molecule.

Row | SMILES | Ki [1] [nM] | Ki [2] [nM] | Ki [3] [nM]
7 | Cc1ccc(-c2ncccn2)c(C(=O)N2C[C@H]3C[C@@H](Nc4cnc(C(F)(F)F)cn4)[C@@H]2C3)n1 [Example 191, (6-methyl-3-(pyrimidin-2-yl)pyridin-2-yl)((1S,4S,6R)-6-((5-(trifluoromethyl)pyrazin-2-yl)amino)-2-azabicyclo[2.2.1]heptan-2-yl)methanone] | 15 | 13 | 163
8 | O=C(c1cccc(F)c1-n1nccn1)N1C[C@H]2C[C@@H](Nc3cnc(C(F)(F)F)cn3)[C@@H]1C2 [Example 192, (3-fluoro-2-(2H-1,2,3-triazol-2-yl)phenyl)((1S,4S,6R)-6-((5-(trifluoromethyl)pyrazin-2-yl)amino)-2-azabicyclo[2.2.1]heptan-2-yl)methanone] | 8 | 7 | 249
9 | O=C(c1ccc(F)cc1-n1nccn1)N1C[C@H]2C[C@@H](Nc3cnc(C(F)(F)F)cn3)[C@@H]1C2 [Example 193, (4-fluoro-2-(2H-1,2,3-triazol-2-yl)phenyl)((1S,4S,6R)-6-((5-(trifluoromethyl)pyrazin-2-yl)amino)-2-azabicyclo[2.2.1]heptan-2-yl)methanone] | 40 | 65 | 2000
10 | O=C(c1cc(F)ccc1-n1nccn1)N1CC2CC(Nc3cnc(C(F)(F)F)cn3)C1C2 [Example 194, ((5-fluoro-2-(2H-1,2,3-triazol-2-yl)phenyl)((1S,4S,6R)-6-((5-(trifluoromethyl)pyrazin-2-yl)amino)-2-azabicyclo[2.2.1]heptan-2-yl)methanone] | 8 | 8 | 241
11 | O=C(c1c(F)cccc1-n1nccn1)N1C[C@H]2C[C@@H](Nc3cnc(C(F)(F)F)cn3)[C@@H]1C2 [Example 195, (2-fluoro-6-(2H-1,2,3-triazol-2-yl)phenyl)((1S,4S,6R)-6-((5-(trifluoromethyl)pyrazin-2-yl)amino)-2-azabicyclo[2.2.1]heptan-2-yl)methanone] | 9 | 8 | 199
12 | Cc1cccc(C(=O)N2C[C@H]3C[C@@H](Nc4cnc(C(F)(F)F)cn4)[C@@H]2C3)c1-n1nccn1 [Example 196, (3-methyl-2-(2H-1,2,3-triazol-2-yl)phenyl)((1S,4S,6R)-6-((5-(trifluoromethyl)pyrazin-2-yl)amino)-2-azabicyclo[2.2.1]heptan-2-yl)methanone] | 6 | 4 | 60
13 | COc1ccc(C(=O)N2C[C@H]3C[C@@H](Nc4cnc(C(F)(F)F)cn4)[C@@H]2C3)c(-n2nccn2)c1 [Example 197, (4-methoxy-2-(2H-1,2,3-triazol-2-yl)phenyl)((1S,4S,6R)-6-((5-(trifluoromethyl)pyrazin-2-yl)amino)-2-azabicyclo[2.2.1]heptan-2-yl)methanone] | 93 | 39 | 9700
14 | O=C(c1ccc(F)cc1-c1ncccn1)N1C[C@H]2C[C@@H](Nc3cnc(C(F)(F)F)cn3)[C@@H]1C2 [Example 198, (4-fluoro-2-(pyrimidin-2-yl)phenyl)((1S,4S,6R)-6-((5-(trifluoromethyl)pyrazin-2-yl)amino)-2-azabicyclo[2.2.1]heptan-2-yl)methanone] | 11 | 9 | 1380
15 | O=C(c1cc(F)ccc1-c1ncccn1)N1C[C@H]2C[C@@H](Nc3cnc(C(F)(F)F)cn3)[C@@H]1C2 [Example 199, (5-fluoro-2-(pyrimidin-2-yl)phenyl)((1S,4S,6R)-6-((5-(trifluoromethyl)pyrazin-2-yl)amino)-2-azabicyclo[2.2.1]heptan-2-yl)methanone] | 6 | 8 | 221
16 | O=C(c1c(F)cccc1-c1ncccn1)N1C[C@H]2C[C@@H](Nc3cnc(C(F)(F)F)cn3)[C@@H]1C2 [Example 200, (2-fluoro-6-(pyrimidin-2-yl)phenyl)((1S,4S,6R)-6-((5-(trifluoromethyl)pyrazin-2-yl)amino)-2-azabicyclo[2.2.1]heptan-2-yl)methanone] | 7 | 6 | 240
17 | O=C(c1ccccc1-c1ncccn1)N1C[C@H]2C[C@@H](Nc3cnc(C(F)(F)F)cn3)[C@@H]1C2 [Example 201, (2-(pyrimidin-2-yl)phenyl)((1S,4S,6R)-6-((5-(trifluoromethyl)pyrazin-2-yl)amino)-2-azabicyclo[2.2.1]heptan-2-yl)methanone] | 6 | 6 | 213
18 | O=C(c1cc(F)ccc1-c1ncco1)N1C[C@H]2C[C@@H](Nc3cnc(C(F)(F)F)cn3)[C@@H]1C2 [Example 202, (5-fluoro-2-(oxazol-2-yl)phenyl)((1S,4S,6R)-6-((5-(trifluoromethyl)pyrazin-2-yl)amino)-2-azabicyclo[2.2.1]heptan-2-yl)methanone] | 13 | 13 | 302
